Test results reported in US20040157811A1, “Inhibition of the growth factor dependency of tumor cells” (priority 2000, published 2004).
Entries after “also recorded” stand apart in the source; their conditions may differ.

Tests used:
EGF-receptor expression = EGF-receptor expression in R5020-stimulated T47D cells; type: cell-based, human; conditions: T47D cells stimulated with R5020
[1] = biological target: T1, progesterone receptor (PR) (Homo sapiens, UniProt P06401); assay: Transactivation assay (MTV-LUC, luciferase) in T47D cells; type: cell-based; conditions: T47D cells transiently transfected with MTV-LUC, treated with R5020 plus increasing concentrations, 24 hours, FIG. 3
T1 construct: T47D cells were transiently transfixed with MTV-LUC; endogenous in cells; host or cells: T47D human breast carcinoma cells
T1 sequence (P06401 1-933): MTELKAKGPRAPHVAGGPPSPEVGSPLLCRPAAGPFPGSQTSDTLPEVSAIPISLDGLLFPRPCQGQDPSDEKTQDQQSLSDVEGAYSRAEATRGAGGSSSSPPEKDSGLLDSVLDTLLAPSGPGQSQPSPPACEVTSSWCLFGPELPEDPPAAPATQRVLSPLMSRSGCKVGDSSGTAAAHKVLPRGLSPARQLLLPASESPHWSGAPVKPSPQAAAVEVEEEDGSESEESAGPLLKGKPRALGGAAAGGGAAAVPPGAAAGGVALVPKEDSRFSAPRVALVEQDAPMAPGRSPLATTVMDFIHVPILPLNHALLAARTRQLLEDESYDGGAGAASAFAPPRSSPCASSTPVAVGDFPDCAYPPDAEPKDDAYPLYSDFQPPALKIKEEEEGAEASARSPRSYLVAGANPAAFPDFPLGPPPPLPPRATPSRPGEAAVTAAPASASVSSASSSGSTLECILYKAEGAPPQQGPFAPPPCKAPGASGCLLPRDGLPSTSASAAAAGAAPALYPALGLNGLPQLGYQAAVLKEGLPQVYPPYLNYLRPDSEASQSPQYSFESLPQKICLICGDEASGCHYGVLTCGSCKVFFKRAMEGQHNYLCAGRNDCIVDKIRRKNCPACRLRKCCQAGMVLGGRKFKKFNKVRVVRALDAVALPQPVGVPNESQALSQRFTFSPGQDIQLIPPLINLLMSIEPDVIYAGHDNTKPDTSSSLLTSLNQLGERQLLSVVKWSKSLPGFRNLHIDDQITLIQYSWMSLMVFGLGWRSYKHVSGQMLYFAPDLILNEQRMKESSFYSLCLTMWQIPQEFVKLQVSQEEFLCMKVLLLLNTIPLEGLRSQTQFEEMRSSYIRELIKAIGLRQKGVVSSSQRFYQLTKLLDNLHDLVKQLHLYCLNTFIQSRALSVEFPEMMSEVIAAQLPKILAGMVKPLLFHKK
Method: T47D cells were transiently transfixed with MTV-LUC (Cato et al., EMBO J., 9: 2237-40) and cultivated in the absence or the presence of 1 nM of R5020. In the test on a PR-mediated antagonism, the transiently transfixed T47D cells were treated with R5020 and in addition with increasing concentrations of compound A or RU486. After 24 hours, a luciferase test was performed.
In the test for a PR-mediated antagonism, the transiently transfixed T47D cells were treated with 0.1 nM of R5020 and increasing concentrations of compound A or […] (b).

[2] = system: breast carcinoma cell line T47D; assay: Growth studies, antiproliferative action on T47D cells (crystal violet); type: cell-based, human; conditions: 0.1 nM estradiol, 6 days, increasing concentrations, FIG. 1
Method: The tumor cells were cultivated at 5000 cells/well in 96-well plates for 6 days in RPMI medium plus 10% bovine serum, 200 nM of insulin and 0.1 nM of estradiol in the presence of the compounds that are indicated in each case, and the growth was determined by staining with crystal violet.
2. […] T47D cells were cultivated in the presence (upper cross-hatching) or absence (lower cross-hatching) of 0.1 nM of E2 plus increasing concentrations of compound A (▴), onapristone (▪), ZK191703 (●) or 4-OH-Tam (♦).

[3] = system: binding of EGF to T47D cells; assay: Binding of 125I-EGF to tumor cells (R5020-pretreated T47D cells); type: cell-based, human; conditions: for block of the R5020-caused increase of 125I-EGF binding to intact T47D cells: T47D cells treated 48 hours with 2 or 20 nM R5020 plus test substance, FIG. 5
Method: R5020-Pretreated T47D cells were incubated for 2 hours with ^125I-EGF at 4° C. The unspecific binding was always less than 10% of the total binding.
In FIG. 4, a Scatchard analysis of the ^125I-EGF binding to T47D cells is shown. The cells were cultivated for 48 hours in the presence of 20 nM of R5020 with or without 20 nM of compound A and then washed. Then, the EGF-binding over a concentration range of 0.25 to 150 ng/ml of EGF was determined by incubation for 2 hours at 4° C. The insertions show the amount of bonded ligands relative to the logarithm of the free ligand concentration.
In FIG. 5, the binding of ^125I-EGF to intact T47D cells is shown. For this purpose, the cells were treated for 48 hours with 2 or 20 nM of R5020 plus compound A or onapristone or compound A alone.

CC(=O)c1ccc([C@H]2C[C@@]3(C)[C@@H](CC[C@@]3(O)C(F)(F)C(F)(F)F)[C@@H]3CCC4=CC(=O)CCC4=C32)cc1 [compound A, 11β-(4-acetylphenyl)-17β-hydroxy-17α-(1,1,2,2,2-pentafluoroethyl)-estra-4,9-dien-3-one]
block of R5020-increased EGF-receptor expression (EGF-receptor expression): blocked | block of transcriptional activity of PR (PR-mediated antagonism) [1]: could be blocked | antiproliferative action / block of estradiol-stimulated growth of T47D cells [2]: significant antiproliferative action at extremely small concentrations; also recorded: effectively blocked | block of the R5020-caused increase of 125I-EGF binding to intact T47D cells [3]: blocks the increase of the EGF-binding; also recorded: could be prevented | block of the R5020-caused increase of 125I-EGF binding (Scatchard analysis) ([3]; T47D cells, 48 hours, 20 nM R5020 with 20 nM compound A, EGF 0.25 to 150 ng/ml, 2 hours at 4° C, FIG. 4): block the increase of the EGF binding

CN(C)c1ccc([C@H]2C[C@]3(C)[C@@H](CC[C@]3(O)CCCO)[C@@H]3CCC4=CC(=O)CCC4=C32)cc1 [onapristone, 11β-[p-(dimethylamino)phenyl]-17α-hydroxy-17-(3-hydroxypropyl)-13α-estra-4,9-dien-3-one, reference compound]
block of the R5020-caused increase of 125I-EGF binding to intact T47D cells [3]: considerably weaker effect; also recorded: less efficiently
